Laboratory results published in patent US9469650B2, “Melampomagnolide B derivatives” (BOARD OF TRUSTEES OF THE UNIVERSITY OF ARKANSAS, priority 2013, dated 2016).

What was measured:
[1] = test system: SK-MEL-5
[2] = test system: NCI-H23
[3] = test system: MCF7
[4] = test system: HCC-2998
[5] = test system: MOLT-4
[6] = test system: SW-620
[7] = test system: SK-OV-3
[8] = test system: RXF 393
[9] = test system: OVCAR-8
[10] = test system: NCI-H226
[11] = test system: MALME-3M
[12] = test system: NCI-H460
[13] = test system: 786-0
[14] = test system: U251
[15] = test system: LOX IMVI
[16] = test system: MDA-MB-231/ATCC
[17] = test system: CAKI-1
[18] = test system: M14
[19] = test system: SF-295
[20] = test system: SK-MEL-28
[21] = test system: T-47D
[22] = test system: HCT-15
[23] = test system: NCI-H522
[24] = test system: IGROV1
[25] = test system: OVCAR-5
[26] = test system: SK-MEL-2
[27] = test system: PC-3
[28] = test system: SNB-19
[29] = test system: SR
[30] = test system: UACC-62
[31] = test system: A498
[32] = test system: HS 578T
[33] = test system: A549/ATCC
[34] = test system: SF-268
[35] = test system: NCI-H322M
[36] = test system: MALME-3M; assay: panel of 60 human tumor cell lines, growth inhibition (Melanoma); conditions: MALME-3M
[37] = test system: SNB-75
[38] = test system: K-562
[39] = test system: SN12C
[40] = test system: MDA-MB-435
[41] = test system: TK-10
[42] = test system: HT29
[43] = test system: CCRF-CEM
[44] = test system: RPMI-8226; assay: panel of 60 human tumor cell lines, growth inhibition (Leukemia); conditions: RPMI-8226
[45] = test system: DU-145

C=C1C(=O)O[C@H]2[C@H]1CC/C(COC(=O)NCCO)=C\CC[C@@]1(C)O[C@@H]21 [JVM 2-50]
CC50 [1]: > 100 µM | CC50 [2]: 94.3 µM | CC50 [3]: 75.5 µM | CC50 [4]: 77.2 µM | CC50 [5]: > 100 µM | CC50 [6]: 74 µM | CC50 [7]: > 100 µM | CC50 [8]: 62.5 µM | CC50 [9]: > 100 µM | CC50 [10]: > 100 µM | CC50 [11]: 73.3 µM | CC50 [12]: > 100 µM | CC50 [13]: 66.4 µM | CC50 [14]: > 100 µM | CC50 [15]: 57.1 µM | CC50 [16]: 75.5 µM | CC50 [17]: 73.8 µM | CC50 [18]: 88.3 µM | CC50 [19]: > 100 µM | CC50 [20]: 79.4 µM | CC50 [21]: 87.4 µM | CC50 [22]: 57.5 µM | CC50 [23]: 9.13 µM | CC50 [24]: > 100 µM | CC50 [25]: 92.4 µM | CC50 [26]: 94.4 µM | CC50 [27]: > 100 µM | CC50 [28]: > 100 µM | CC50 [29]: > 100 µM | CC50 [30]: 58.3 µM | CC50 [31]: > 100 µM | CC50 [32]: > 100 µM | CC50 [33]: > 100 µM | CC50 [34]: 99.1 µM | CC50 [35]: > 100 µM | Percent Growth ([36]; Log10 Concentration −4.0): −67% | Percent Growth ([36]; Log10 Concentration −5.0): 58% | Percent Growth ([36]; Log10 Concentration −6.0): 110% | Percent Growth ([36]; Log10 Concentration −7.0): 111% | Percent Growth ([36]; Log10 Concentration −8.0): 107% | GI50 ([36]; NCI five dose): 11.5 µM | TGI ([36]; NCI five dose): 2.91E−5 | CC50 [37]: > 100 µM | CC50 [38]: > 100 µM | CC50 [39]: > 100 µM | CC50 [40]: 52 µM | CC50 [41]: 52.3 µM | CC50 [42]: ≥ 100 µM | CC50 [43]: > 100 µM | Percent Growth ([44]; Log10 Concentration −4.0): −49% | Percent Growth ([44]; Log10 Concentration −5.0): 33% | Percent Growth ([44]; Log10 Concentration −6.0): 93% | Percent Growth ([44]; Log10 Concentration −7.0): 97% | Percent Growth ([44]; Log10 Concentration −8.0): 98% | GI50 ([44]; NCI five dose): 5.14 µM | TGI ([44]; NCI five dose): 2.51E−5 | CC50 [45]: 52.8 µM
